The test system of test [1] is B16 cells. Nature of the test: Induction of pigmentation in vitro, DOPA staining. The class given is cell-based, murine. The settings on record: 10 ug/ml, 48 hours. Here is the method: THPED was tested for its effect on pigmentation, using melanocytes, DOPA staining and computerized image analysis. THPED was obtained from BASF (Florham Park, N.J.). THPED was dissolved in culture medium and pH was adjusted to neutral (pH 7.2). THPED was assayed at concentrations ranging from 0.05-0.01%.
B16 cells (a murine melanoma cell line) were obtained from American Type Culture Collection (Manassas, Va.). Cells were cultured in Dulbecco's Modified Eagle Medium (DMEM) containing 10% fetal bovine serum (FBS), 4.5 mg/ml glucose, 2 mM L-glutamine, sodium pyruvate, without phenol red (Invitrogen, Carlsbad, Calif.). B16 cells were plated on 12 well tissue culture plates (Corning Costar, San Diego, Calif.), at 40,000 cells per well in the above culture media. Cells were allowed to grow overnight and then treated with various concentrations of THPED at pH 7.2 for total 48 hours. Fresh media containing the experimental treatments were changed once daily.
At the end of the treatment, the cells were washed for 5 minutes, twice, in phosphate-buffered saline (PBS, from Life Technologies, Gaithersburg, Md.), then briefly fixed in 10% buffered formalin (from Sigma St. Louis, Mo.) for 10 minutes, washed three times with PBS and stained with 0.1% L-3,4-Dihydroxyphenylalanine (DOPA, from Sigma, St. Louis, Mo.) in PBS for 2-3 hours at 37° C., followed by three PBS washes. DOPA is a substrate for tyrosinase; therefore an increase in staining represents increased tyrosinase activity and pigment production. Images of DOPA-stained cells were taken using a Leica DMIL microscope (Bannockburn, Ill.) and an OPTRONICS DEI-750 digital camera (Goleta, Calif.). All images were obtained and analyzed with Image Pro Plus 4.0 software (Media Cybernetics, Silver Spring, Md.).
The pigment change was evaluated using the scale defined in Table XII.

In test [2] the test system is tyrosinase. Nature of the test: Tyrosinase activity in lysates of treated B16 cells (DOPA, absorbance 490 nm). The class given is cell-based, murine. The settings on record: 10 μg/ml; B16 cells 48 hours; activity at 3-hours, normalized for total protein. The protocol: THPED was also tested for its ability to induce tyrosinase activity in B16 cells by spectroscopic measuring of the final product, melanin. B16 cells were treated with THPED at different concentrations at pH 7.2 for 48 hours and cells were then lysed in 250 μl of PBS containing 1% Triton X-100 (Sigma, St. Louis, Mo.). The lysates were collected and centrifuged at 14,000 rpm for 5 minutes at 4° C. to pellet any insoluble material. Lysates (100 μl) were transferred to a 96 well assay plate (Corning Costar, San Diego, Calif.) and mixed with 100 μl of 0.1% (w/v) DOPA in PBS. The absorbance at 490 nm was then monitored from 0 to 12 hours using a VersaMax Plate Spectrophotometer (Molecular Devices, Sunnyvale, Calif.) and SoftMax Pro analytical software (Molecular Devices, Sunnyvale, Calif.). The tyrosinase activities were normalized for total protein using the BioRad Dc Protein Assay (Bio Rad, Hercules, Calif.).

In test [3] the test system is tyrosinase. Nature of the test: Tyrosinase protein levels in B16 cells (Western blot, normalized to β-Actin). The class given is cell-based, murine. The settings on record: 20 μg/ml, PBS treated control = 1. Here is the method: THPED was also tested for its ability to induce tyrosinase protein levels in B16 cells. B16 cells were treated with THPED at different concentrations at pH 7.2 for 48 hours and cells were then lysed in 250 μl of PBS containing 1% Triton X-100. B16 cell lysates containing 3.7 μg of protein (for tyrosinase protein analysis) and 1.2 μg of protein (for β-Actin protein analysis) were electrophoresed on 4-20% Tris-Glycine SDS PAGE minigels (Invitrogen, Carlsbad, Calif.), transferred onto PVDF membrane (Bio Rad, Hercules, Calif.), and probed with antibodies for Tyrosinase (1:200 in PBS+0.2% Tween 20+5% BSA, obtained from Santa Cruz Biotechnology, Inc., Santa Cruz, Calif.) and β-Actin (1:2000 in PBS+0.2% Tween 20+5% BSA, obtained from Sigma, St. Louis, Mo.). Protein expression of tyrosinase and β-Actin were analyzed using ECL reagent and Hyperfilm ECL obtained from Amersham (Piscataway, N.J.). The film was developed using a Konica SRX-101A Processor (East Orange, N.J.).
Tyrosinase protein level in untreated B16 cells was normalized to 1.
Background: In western blotting, separated proteins are transferred to a membrane and probed.

The subject of test [4] is TNF (tissue necrosis factor-alpha). Put plainly: PHA-stimulated peripheral blood lymphocyte cytokine release: TNF. The class given is cell-based. The settings on record: Homo sapiens, read-out: TNF % inh. From the text: (§1) The ability of various amines to affect the inflammatory responses was illustrated by its ability to reduce the production of cytokines by human lymphocytes stimulated with the T-cell receptor (TCR) activating agent phytohaemagglutinin (PHA) in the following assay.
(§2) Human leukocytes were collected from a healthy adult […] via leukopheresis, and adjusted to a density Of 1×10^6 cells/mL in serum free lymphocyte growth medium (ExVivo-15, Biowhittaker, Walkersville, Md.). PBLs were stimulated with 10 μg/mL PHA in the presence or absence of test samples following published methods (Hamamoto Y., et al. Exp Dermatol 2:231-235, 1993). The following compounds were evaluated N,N,N′,N′-Tetrakis(2-hydroxypropyl)ethylenediamine (THPED, available from BASF under the tradename “Quadrol” or “Neutrol”), N,N,N,N-Tetramethylethylenediamine (TEMED, available from Pfaltz & Bauer Chemicals (Waterbury, Conn.)), and Diethylenetriamine (available from Sigma-Aldrich) Following a 48 hour incubation at 37° C. with 5% CO2, the supernatant was removed and evaluated for cytokine content using commercially available multiplex cytokine detection kit.

In test [5] the test system is IL-2 (Interleukin-2). Put plainly: PHA-stimulated peripheral blood lymphocyte cytokine release: IL-2. The class given is cell-based. The settings on record: Homo sapiens, read-out: IL-2 % inh.
Excerpt: as §1, §2

Test [6] concerns IFN (interferon-gamma). Nature of the test: PHA-stimulated peripheral blood lymphocyte cytokine release: IFN. The class given is cell-based. The following applies: Homo sapiens, read-out: IFN % inh.
Excerpt: as §1, §2

In test [7] the test system is GM-CSF (granulocyte macrophage stimulating factor). Put plainly: PHA-stimulated peripheral blood lymphocyte cytokine release: GM-CSF. The class given is cell-based. The settings on record: Homo sapiens, read-out: GMCSF % inh.
Excerpt: as §1, §2

The mark [8] stands for this setting: 10 μg/ml, 10 μg/mL PHA, 48 hour incubation.
[9] abbreviates: 100 μg/ml, 10 μg/mL PHA, 48 hour incubation.

Consider five compounds from patent US8278359B2, “Compositions containing amines and use thereof to treat acne or reduce the appearance of oil or pores on the skin” (Johnson & Johnson Consumer Companies, Inc., priority 2005, dated 2012).

Like-named read-outs stand apart in the source and are kept apart here.

Take `C=C[C@@]1(C)CC(=O)[C@]2(O)[C@@]3(C)[C@@H](O)CCC(C)(C)[C@@H]3[C@H](O)[C@H](OC(C)=O)[C@@]2(C)O1` [Forskolin, forskolin, reference compound]: in test [1], the Pigmentation score stood at 3. Also, in test [2], the “% tyrosinase activity relative to untreated control” value amounted to 202.35%. Further, the “Relative increase in tyrosinase protein” value in test [3] is given as 34 fold.
Take `NCCNCCN` [Diethylenetriamine]: the inhibition at 10 µg/mL in test [4] (setting [8]) was 9.9%; in test [5] (setting [8]), 4.7%; in test [6] (setting [8]), -1.2%; in test [7] (setting [8]), 36.6%. Moreover, the inhibition at 100 µg/mL is 3.3% in test [4] (setting [9]), -19.5% in test [5] (setting [9]), -35% in test [6] (setting [9]) and 51.7% in test [7] (setting [9]).
As to `CN(C)CCN(C)C` [TEMED, N, N, N′, N′-tetramethylethylene diamine], the inhibition at 10 µg/mL in test [4] (48 h) was 33.6%; in test [5] (48 h), 6.6%; in test [6] (48 h) it was 36.9%; in test [7] (48 h), 47.4%. Besides, the inhibition at 100 µg/mL in test [4] (48 h) came out at 41.8%; in test [5] (48 h), 42.9%; in test [6] (48 h) it was 58.6%; in test [7] (48 h), 53.1%.
Consider `CC(C)NCCN(CCNC(C)C)CCNC(C)C` [Tris[2-(isopropylamino)ethyl]amine, reference compound], for which the inhibition at 10 µg/mL in test [4] (setting [8]) is -10.7%; in test [5] (setting [8]) it was -7.7%; in test [6] (setting [8]) it was 20.3%; in test [7] (setting [8]) it was -26.4%. Moreover, the inhibition at 100 µg/mL in test [4] (setting [9]) is -15.3%; in test [5] (setting [9]), 2.3%; in test [6] (setting [9]), 12.5%; in test [7] (setting [9]), -52.8%.
`OCCN(CCO)CCN(CCO)CCO` [THEED, N, N, N′, N′-Tetrakis(2-hydroxyethyl)ethylene diamine]: the inhibition at 10 µg/mL in test [4] (48 h) was 35.8%; in test [5] (48 h) it was 27.7%; in test [6] (48 h), 23.7%; in test [7] (48 h), 16.6%. Also, the inhibition at 100 µg/mL in test [4] (48 h) stood at 44.5%; in test [5] (48 h), 61.8%; in test [6] (48 h), 49.5%; in test [7] (48 h), 23%.
